Measured values taken from US20030195376A1, “Novel intermediate and processes for its preparation and conversion into a pharmacologically-active agent” (priority 2002, published 2003).

Columns and labels:
[1] = in vivo; cited from earlier work
[2] = tested on: neuronal uptake of dopamine; details: relative to serotonin-norepinephrine uptake; cited from earlier work
[3] = Solubility in solvents (product characteristics); type: physicochemical; details: in methanol
[4] = ethanol, chloroform, dichloromethane, acetone, ethyl acetate, benzene, toluene and isopropyl alcohol

SMILES: COc1ccc(C(CN(C)C)C2(O)CCCCC2)cc1 (racemic) [formula (IX), (±)-1-[2-dimethylamino-1-(4-methoxy-phenyl)-ethyl]-cyclohexanol]
- effectiveness compared with standard antidepressants such as imipramine [1]: as effective as
- inhibition of neuronal uptake of dopamine [2]: to a lesser extent

SMILES: COc1ccc(C2(C#N)OC23CCCCC3)cc1 (stereo not shown) [formula (I), 2-(4-methoxy-phenyl)-1-oxa-spiro[2.5]octane-2-carbonitrile]
- Solubility [3, 4]: Soluble in methanol, ethanol, chloroform, dichloromethane,

SMILES: COc1ccc(C(=O)C2(Br)CCCCC2)cc1 [formula (II), (1-bromo-cyclohexyl)-(4-methoxy-phenyl)-methanone]
- Solubility [3, 4]: Soluble in methanol, ethanol, chloroform, dichloromethane,

SMILES: COc1ccc(C(=O)C2CCCCC2)cc1 [formula (III), cyclohexyl-(4-methoxy-phenyl)-methanone]
- Solubility [3, 4]: Soluble in Methanol, ethanol, chloroform, dichloromethane,

SMILES: COc1ccc(C(O)C2CCCCC2)cc1 (stereo not shown) [formula (V), cyclohexyl-(4-methoxy-phenyl)-methanol]
- Solubility ([3]; ethanol, chloroform, dichloromethane, acetone, ethyl acetate etc.): Soluble in methanol, ethanol, chloroform,

SMILES: COc1ccc(C(CN)C2(O)CCCCC2)cc1 (stereo not shown) [formula (X), 1-[2-amino-1-(4-methoxy-phenyl)-ethyl]-cyclohexanol]
- Solubility ([3]; chloroform and water): Soluble in methanol, chloroform and water
